Experiments:
Format in all cases: cell-based
[1] = target: T1, Ba/F3 BCR-ABL1 V468F (Homo sapiens, UniProt P00519+P11274, V468F); assay: Cell growth inhibitory activity assay (CellTiter-Glo), Ba/F3 BCR-ABL1 V468F cells; conditions: 72 h, CTG cell viability
T1 construct: BCR (N-terminal fusion partner of the oncoprotein); expressed in transfected cells; host or cells: Ba/F3 (lentiviral transduction, monoclonal line)
Method: (§1) In this assay, the Celltiter-Glo (CTG) kit provided by Promega was used, and it is a homogeneous cell viability assay method. The cell viability of cultured cells was measured by quantifying ATP. K562 cells were purchased from Nanjing Kebai, product number CBP60529; Ba/F3 parental cells were purchased from RIKEN BRC, product number RCB0805; other cells containing BCR-ABL1 WT, BCR-ABL1 T315I, BCR-ABL1 T315M, BCR-ABL1 Y253H/E255K, BCR-ABL1 E255V/T3151, BCR-ABL1 A424T, BCR-ABL1 A337V, BCR-ABL1 P465S, BCR-ABL1 V468F, and BCR-ABL1 I502L were all monoclonal engineered cell lines obtained by transducting Ba/F3 parental cells with the lentivirus plasmids containing WT or corresponding mutated BCR-ABL1.
(§2) The steps of cell viability assay are as follows: • a) Cells in logarithmic growth phase were collected. Cell suspension was prepared and the cells were counted. Concentration of the cells was calculated. • b) The cell suspension was diluted to the required concentration and then added to the middle wells of a 96-well plate, and PBS was added to the edge wells. The wells with no cells and only culture medium were used as blank controls. • c) In addition to the cell plate used for compound analysis, another 96-well plate was prepared as a T0 plate, and 3-6 blank wells and 3-6 cell wells were added. The next day, CTG was used to test the cell viability as the T0 viability value of the cells. • d) The cell plate was incubated at 37 °C in a 5% CO2 incubator overnight. • e) The next day, each concentration of a compound subjected to a gradient dilution was added, and the cell plate was incubated at 37 °C in a 5% CO2 incubator for 72 h. The wells with no compound and only 0.5% DMSO were used as positive controls for cell growth. • f) CTG reagent (CellTiter-Glo kit) was added according to the manufacturer's instructions to test the cell viability value. • g) The plate was read using Biotek cytation3.0 microplate reader and the data were exported. • h) IC50 was calculated using GraphPad Prism 7.0 software.
(§3) The IC50 (half-maximal inhibitory concentration) of the compound was obtained using the following nonlinear fitting formula: Y = Bottom + (Top−Bottom)/(1+10^(∧)((LogIC50−X)*HillSlope)) [formula] • X: Log value of the compound concentration • Y: Inhibition rate (% inhibition) • Top: Maximum response • Bottom: Baseline response • HillSlope: Slope of the curve
(§4) The formula for calculating cell inhibition rate (inhibition rate %) was: [formula]

[2] = target: T2, Ba/F3 BCR-ABL1 Y253H/E255K (Homo sapiens, UniProt P00519+P11274, E255K/Y253H); assay: Cell growth inhibitory activity assay (CellTiter-Glo), Ba/F3 BCR-ABL1 Y253H/E255K cells; conditions: 72 h, CTG cell viability
T2 construct: BCR (N-terminal fusion partner of the oncoprotein); expressed in transfected cells; host or cells: Ba/F3 (lentiviral transduction, monoclonal line)
Method: as §1, §2, §3, §4

[3] = test system: K562 cells; assay: Cell growth inhibitory activity assay (CellTiter-Glo), K562 cells; conditions: Homo sapiens, 72 h, CTG cell viability
Method in brief: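 Growth inhibition of human K562 cells, sourced from Nanjing Kebai (CBP60529), was assessed with Promega's CellTiter-Glo kit, which measures viability through ATP quantification. Log-phase cells went into the inner wells of 96-well plates, with PBS in edge wells, incubated overnight at 37 °C and 5% CO2, then exposed to serially diluted compound for 72 h.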

[4] = target: T3, Ba/F3 BCR-ABL1 T315M (Homo sapiens, UniProt P00519+P11274, T315M); assay: Cell growth inhibitory activity assay (CellTiter-Glo), Ba/F3 BCR-ABL1 T315M cells; conditions: 72 h, CTG cell viability
T3 construct: BCR (N-terminal fusion partner of the oncoprotein); expressed in transfected cells; host or cells: Ba/F3 (lentiviral transduction, monoclonal line)
Method: as §1, §2, §3, §4

[5] = test system: Ba/F3 parental cells; assay: Cell growth inhibitory activity assay (CellTiter-Glo), Ba/F3 parental cells; conditions: Mus musculus, BaF3, 72 h, CTG cell viability, read-out: IC50 Ba/F3 BCR-ABL1 Parental
Method in brief: (§5)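 Ba/F3 parental cells or Ba/F3 lines lentivirally transduced with WT or mutant BCR-ABL1, seeded overnight then exposed to serially diluted compound 72 h at 37 °C, 5% CO2. Viability by CellTiter-Glo ATP luminescence with a T0 plate; 0.5% DMSO controls; IC50 from four-parameter nonlinear fit.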

[6] = target: T4, Ba/F3 BCR-ABL1 A424T (Homo sapiens, UniProt P00519+P11274, A424T); assay: Cell growth inhibitory activity assay (CellTiter-Glo), Ba/F3 BCR-ABL1 A424T cells; conditions: 72 h, CTG cell viability
T4 construct: BCR (N-terminal fusion partner of the oncoprotein); expressed in transfected cells; host or cells: Ba/F3 (lentiviral transduction, monoclonal line)
Method: as §1, §2, §3, §4

[7] = target: T5, Ba/F3 BCR-ABL1 WT (Homo sapiens, UniProt P00519+P11274); assay: Cell growth inhibitory activity assay (CellTiter-Glo), Ba/F3 BCR-ABL1 WT cells; conditions: 72 h, CTG cell viability
T5 construct: BCR (N-terminal fusion partner of the oncoprotein); expressed in transfected cells; host or cells: Ba/F3 (lentiviral transduction, monoclonal line)
Method in brief: as §5

[8] = target: T6, Ba/F3 BCR-ABL1 T315I (Homo sapiens, UniProt P00519+P11274, T315I); assay: Cell growth inhibitory activity assay (CellTiter-Glo), Ba/F3 BCR-ABL1 T315I cells; conditions: 72 h, CTG cell viability
T6 construct: BCR (N-terminal fusion partner of the oncoprotein); expressed in transfected cells; host or cells: Ba/F3 (lentiviral transduction, monoclonal line)
Method in brief: as §5

[9] = target: T7, Ba/F3 BCR-ABL1 E255V/T315I (Homo sapiens, UniProt P00519+P11274, E255V/T315I); assay: Cell growth inhibitory activity assay (CellTiter-Glo), Ba/F3 BCR-ABL1 E255V/T315I cells; conditions: 72 h, CTG cell viability
T7 construct: BCR (N-terminal fusion partner of the oncoprotein); expressed in transfected cells; host or cells: Ba/F3 (lentiviral transduction, monoclonal line)
Method: as §1, §2, §3, §4

[10] = target: T8, Ba/F3 BCR-ABL1 A337V (Homo sapiens, UniProt P00519+P11274, A337V); assay: Cell growth inhibitory activity assay (CellTiter-Glo), Ba/F3 BCR-ABL1 A337V cells; conditions: 72 h, CTG cell viability
T8 construct: BCR (N-terminal fusion partner of the oncoprotein); expressed in transfected cells; host or cells: Ba/F3 (lentiviral transduction, monoclonal line)
Method: as §1, §2, §3, §4

[11] = target: T9, Ba/F3 BCR-ABL1 I502L (Homo sapiens, UniProt P00519+P11274, I502L); assay: Cell growth inhibitory activity assay (CellTiter-Glo), Ba/F3 BCR-ABL1 I502L cells; conditions: 72 h, CTG cell viability
T9 construct: BCR (N-terminal fusion partner of the oncoprotein); expressed in transfected cells; host or cells: Ba/F3 (lentiviral transduction, monoclonal line)
Method: as §1, §2, §3, §4

[12] = target: T10, Ba/F3 BCR-ABL1 P465S (Homo sapiens, UniProt P00519+P11274, P465S); assay: Cell growth inhibitory activity assay (CellTiter-Glo), Ba/F3 BCR-ABL1 P465S cells; conditions: 72 h, CTG cell viability
T10 construct: BCR (N-terminal fusion partner of the oncoprotein); expressed in transfected cells; host or cells: Ba/F3 (lentiviral transduction, monoclonal line)
Method: as §1, §2, §3, §4

| Compound | IC50 [1] [nM] | IC50 [2] [nM] | IC50 [3] [nM] | IC50 [4] [nM] | IC50 [5] [nM] | IC50 [6] [nM] | IC50 [7] [nM] | IC50 [8] [nM] | IC50 [9] [nM] | IC50 [10] [nM] | IC50 [11] [nM] | IC50 [12] [nM] |
| --- | --- | --- | --- | --- | --- | --- | --- | --- | --- | --- | --- | --- |
| CC(=O)NC1CCC2c3cc(C(=O)Nc4ccc(OC(F)(F)Cl)cc4)cc(-c4cnc5c(c4)C(=O)N(C)C5)c3N(C(C)C)C12 (racemic) [T-11, 3-acetamido-N-(4-(chlorodifluoromethoxy)phenyl)-4-isopropyl-5-(6-methyl-5-oxo-6,7-dihydro-5H-pyrrolo[3,4-b]pyridin-3-yl)-1,2,3,3a,4,8b-hexahydrocyclopenta[b]indole-7-carboxamide] | > 1000 | 50 to 1000 | ≤ 5 | > 1000 | > 1000 | 50 to 1000 | ≤ 5 | 50 to 1000 | 50 to 1000 | – | – | – |
| CC(C)n1cnc2cc(C(=O)Nc3ccc(OC(F)(F)Cl)cc3)cc(-c3cnc4c(c3)C(=O)N(C)C4)c21 [T-2, N-(4-(chlorodifluoromethoxy)phenyl)-1-isopropyl-7-(6-methyl-5-oxo-6,7-dihydro-5H-pyrrolo[3,4-b]pyridin-3-yl)-1H-benzo[d]imidazole-5-carboxamide] | 50 to 1000 | – | ≤ 5 | – | > 1000 | 50 to 1000 | ≤ 5 | 5 to 50 | 5 to 50 | 50 to 1000 | 50 to 1000 | 50 to 1000 |
| C[C@@H]1COCc2nc3cc(C(=O)Nc4ccc(OC(F)(F)Cl)cc4)cc(-c4cnc5c(c4)-c4n[nH]cc4C5)c3n21 [T-3, (R)-N-(4-(chlorodifluoromethoxy)phenyl)-6-(2,4-dihydropyrazolo[3',4':3,4]cyclopenta[1,2-b]pyridin-7-yl)-4-methyl-3,4-dihydro-1H-benzo[4,5]imidazo[2,1-c][1,4]oxazine-8-carboxamide] | 5 to 50 | ≤ 5 | ≤ 5 | 50 to 1000 | > 1000 | 5 to 50 | ≤ 5 | ≤ 5 | ≤ 5 | 5 to 50 | 5 to 50 | 5 to 50 |
| C[C@@H]1COCc2nc3cc(C(=O)Nc4ccc(OC(F)(F)Cl)cc4)cc(-c4cnc5c(c4)-c4nn(-c6ccccn6)cc4C5)c3n21 [T-4] | 50 to 1000 | ≤ 5 | ≤ 5 | > 1000 | > 1000 | 5 to 50 | ≤ 5 | ≤ 5 | 5 to 50 | 50 to 1000 | 5 to 50 | 50 to 1000 |
| CN1Cc2ncc(-c3cc(C(=O)Nc4ccc(OC(F)(F)Cl)cc4)cc4c3C(C)(C)C(=O)N4)cc2C1=O [T-7, N-(4-(chlorodifluoromethoxy)phenyl)-3,3-dimethyl-4-(6-methyl-5-oxo-6,7-dihydro-5H-pyrrolo[3,4-b]pyridin-3-yl)-2-oxoindoline-6-carboxamide] | 50 to 1000 | – | ≤ 5 | – | > 1000 | > 1000 | ≤ 5 | 5 to 50 | 5 to 50 | > 1000 | 50 to 1000 | > 1000 |
| C[C@@H]1COCc2nc3cc(C(=O)Nc4ccc(OC(F)(F)Cl)cc4)cc(-c4cnc5c(c4)C(=O)N(C4CC4)C5)c3n21 [T-25, (R)-N-(4-(chlorodifluoromethoxy)phenyl)-6-(6-cyclopropyl-5-oxo-6,7-dihydro-5H-pyrrolo[3,4-b]pyridin-3-yl)-4-methyl-3,4-dihydro-1H-benzo[4,5]imidazo[2,1-c][1,4]oxazine-8-carboxamide] | – | 5 to 50 | ≤ 5 | > 1000 | > 1000 | 5 to 50 | ≤ 5 | 5 to 50 | 5 to 50 | – | – | – |
| C[C@@H]1COCc2nc3cc(C(=O)Nc4ccc(OC(F)(F)Cl)cc4)cc(-c4cnc5c(c4)-c4nn(-c6ccncn6)cc4C5)c3n21 [T-67, (R)-N-(4-(chlorodifluoromethoxy)phenyl)-4-methyl-6-(2-(pyrimidin-4-yl)-2,4-dihydropyrazolo[3',4':3,4]cyclopenta[1,2-b]pyridin-7-yl)-3,4-dihydro-1H-benzo[4,5]imidazo[2,1-c][1,4]oxazine-8-carboxamide] | – | ≤ 5 | ≤ 5 | – | > 1000 | – | ≤ 5 | ≤ 5 | – | – | – | – |
| C[C@@H]1COCc2nc3cc(C(=O)Nc4ccc(OC(F)(F)Cl)cc4)cc(-c4cnc5c(c4)-c4nn(-c6ncc(F)cn6)cc4C5)c3n21 [T-68, (R)-N-(4-(chlorodifluoromethoxy)phenyl)-6-(2-(5-fluoropyrimidin-2-yl)-2,4-dihydropyrazolo[3',4':3,4]cyclopenta[1,2-b]pyridin-7-yl)-4-methyl-3,4-dihydro-1H-benzo[4,5]imidazo[2,1-c][1,4]oxazine-8-carboxamide] | 5 to 50 | – | ≤ 5 | ≤ 5 | > 1000 | ≤ 5 | ≤ 5 | ≤ 5 | – | 5 to 50 | ≤ 5 | 5 to 50 |
| C[C@@H]1COCc2nc3cc(C(=O)Nc4ccc(OC(F)(F)Cl)cc4)cc(-c4cnc5c(c4)-c4nn(-c6ncc(C#N)cn6)cc4C5)c3n21 [T-78, (R)-N-(4-(chlorodifluoromethoxy)phenyl)-6-(2-(5-cyanopyrimidin-2-yl)-2,4-dihydropyrazolo[3',4':3,4]cyclopenta[1,2-b]pyridin-7-yl)-4-methyl-3,4-dihydro-1H-benzo[4,5]imidazo[2,1-c][1,4]oxazine-8-carboxamide] | – | ≤ 5 | ≤ 5 | – | > 1000 | – | ≤ 5 | ≤ 5 | ≤ 5 | – | – | – |
| C[C@@H]1COCc2nc3cc(C(=O)Nc4ccc(OC(F)(F)Cl)cc4)cc(-c4cnc5c(c4)-c4nc(N)sc4C5)c3n21 [T-114, (R)-6-(2-amino-4H-thiazolo[4',5':3,4]cyclopenta[1,2-b]pyridin-7-yl)-N-(4-(chlorodifluoromethoxy)phenyl)-4-methyl-3,4-dihydro-1H-benzo[4,5]imidazo[2,1-c][1,4]oxazine-8-carboxamide] | – | 5 to 50 | ≤ 5 | > 1000 | > 1000 | – | ≤ 5 | 5 to 50 | 50 to 1000 | – | – | – |

Reference: EP4768484A1, “HETEROCYCLIC FUSED RING COMPOUND, AND COMPOSITION AND USE THEREOF” (Shenzhen TargetRx, Inc., priority 2023, dated 2025)
